Measured values published in PubChem BioAssay (NCI).
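Dose response: 5 concentrations. Exposure: 48 h. Format: 96-well plates. Endpoint: linear interpolation; highest concentration if not reached. GI50 = concentration required for 50% inhibition of growth. TGI is the concentration that stops growth completely.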

Tests used:
Assay in all cases: NCI tumour cell line growth inhibition, 48 h
COLO 205 colon = test system: COLO 205 colon
HOP-62 NSCLC = test system: HOP-62 NSCLC
IGROV1 ovarian = test system: IGROV1 ovarian
MDA-MB-435 = test system: MDA-MB-435
NCI/ADR-RES ovarian = test system: NCI/ADR-RES ovarian
SK-OV-3 ovarian = test system: SK-OV-3 ovarian
UACC-257 melanoma = test system: UACC-257 melanoma
UO-31 renal = test system: UO-31 renal
HOP-18 NSCLC = test system: HOP-18 NSCLC
M19-MEL melanoma = test system: M19-MEL melanoma
BT-549 breast = test system: BT-549 breast

| Compound | TGI (COLO 205 colon) [µM] | TGI (HOP-62 NSCLC) [µM] | TGI (IGROV1 ovarian) [µM] | TGI (MDA-MB-435) [µM] | TGI (NCI/ADR-RES ovarian) [µM] | TGI (SK-OV-3 ovarian) [µM] | TGI (UACC-257 melanoma) [µM] | TGI (UO-31 renal) [µM] | TGI (HOP-18 NSCLC) [µM] | TGI (M19-MEL melanoma) [µM] | TGI (BT-549 breast) [µM] | GI50 (BT-549 breast) [µM] | GI50 (COLO 205 colon) [µM] | GI50 (HOP-62 NSCLC) [µM] | GI50 (IGROV1 ovarian) [µM] | GI50 (MDA-MB-435) [µM] | GI50 (NCI/ADR-RES ovarian) [µM] | GI50 (SK-OV-3 ovarian) [µM] | GI50 (UACC-257 melanoma) [µM] | GI50 (UO-31 renal) [µM] |
| --- | --- | --- | --- | --- | --- | --- | --- | --- | --- | --- | --- | --- | --- | --- | --- | --- | --- | --- | --- | --- |
| CCCCSCCC(N)P(=O)(O)O (stereo unspecified) | > 100 | > 100 | > 100 | > 100 | > 100 | > 100 | > 100 | > 100 |  |  |  |  |  |  |  |  |  |  |  |  |
| OC1CCSc2ccccc21 (stereo unspecified) | > 100 | > 100 | > 100 |  |  | > 100 |  | > 100 | > 100 | > 100 |  |  |  |  |  |  |  |  |  |  |
| CS(=O)(=O)Nc1ccc(NCc2cnc3ccc4[nH]cccc4c23)cc1 | 36.2 | > 100 | > 100 | 32.5 | > 100 | > 100 | 51.9 | 78.2 |  |  | 73.2 |  |  |  |  |  |  |  |  |  |
| COc1ccc(-n2nc(C(=O)c3ccccc3)c3nn4c(=O)cc(-c5ccccc5)nc4nc32)cc1 | > 100 | > 100 | > 100 | > 100 | > 100 | > 100 | > 100 | > 100 |  |  | > 100 | 55.1 | 29.1 | 44.1 | 25.9 | 51.9 | 34.5 | 74.2 | 42.6 | 28.6 |
| Cc1cc(=O)[nH]c(S(=O)(=O)NC(=O)Nc2cccc(Cl)c2)n1 | > 100 | > 100 | > 100 | > 48.3 | > 100 | > 100 | > 100 | 13.9 |  |  | > 100 |  |  |  |  |  |  |  |  |  |
| CN(C)c1ccc(/C=C2\C[C@H]3[C@@H]4CC=C5C[C@@H](O)CC[C@]5(C)[C@H]4CC[C@]3(C)[C@H]2O)cc1 | 23 | > 100 | 35.3 |  | 43.7 | 88.1 | 35.7 | 36.9 |  |  | 43.3 |  |  |  |  |  |  |  |  |  |
| CC(NC(=O)c1ccc(OP(=O)(OCc2ccc([N+](=O)[O-])o2)N(C)CCCCCl)cc1)c1ccc(OCC2CCCCC2)c(C(N)=O)c1 (stereo unspecified) | 6.24 | 36.7 | 8.34 | 6.3 | > 100 | > 100 | > 39.8 | 6.39 |  |  | 5.94 |  |  |  |  |  |  |  |  |  |
| O=S(C(c1ccccc1)=P(c1ccccc1)(c1ccccc1)c1ccccc1)c1ccc(Cl)cc1 (stereo unspecified) |  | 64.6 | > 100 | 40.6 | > 100 | 50.6 | > 100 | > 100 |  |  |  |  |  |  |  |  |  |  |  |  |
| CN(CCCNC(=O)c1nn(-c2ccccc2)c2c1Cc1ccccc1-2)CCCNC(=O)c1nn(-c2ccccc2)c2c1Cc1ccccc1-2 | 2.8 |  | 3.07 | 2.87 | 3.37 | 3.23 | 3.28 | 3.29 |  |  | 3.21 |  |  |  |  |  |  |  |  |  |
| Oc1ccc(Cl)cc1C1=Nn2c(COc3ccc4c(c3)CCCC4)nnc2SC1 | 31.3 | 27.5 | 26.3 | 36.1 | 41.2 | 42.4 | 35.6 | 23.4 |  |  | 34.6 |  |  |  |  |  |  |  |  |  |
| C=C(CN(C)C)C(=O)c1ccccc1Cl | 29.3 | > 100 | > 70.8 |  |  | > 100 | 37.5 | 33.6 | 33.7 | 33.4 |  |  |  |  |  |  |  |  |  |  |
| C#C[C@]1(O)[C@@H](CO)O[C@@H](n2ccc(=O)[nH]c2=O)[C@@H]1O | 0.173 | 1.05 | 2.59 | 3 |  | > 100 | > 84.5 | 0.183 |  |  |  |  |  |  |  |  |  |  |  |  |
| CCC1=C(CC2NCCc3cc(OC)c(OC)cc32)CC2c3ccccc3CCN2C1 (stereo unspecified) | 21.8 | > 100 | > 100 | 25.8 | > 100 | > 100 | 32 | 36.3 |  |  | > 100 |  |  |  |  |  |  |  |  |  |
| Cc1ccc([N+](=O)[O-])cc1S(=O)(=O)Nc1ccc(C2=NN(C(=O)c3ccccc3)C(c3ccccc3O)C2)cc1 (stereo unspecified) | 31.9 | 85.7 | 25.4 | > 100 | > 100 | 84.5 | 51.8 | 76.6 |  |  | 30.7 |  |  |  |  |  |  |  |  |  |
| O=C1CNc2cc(N3CCCCC3)ccc2N1 |  | > 100 | 29.7 | > 100 | > 100 | > 100 | > 100 | > 100 |  |  | > 100 |  |  |  |  |  |  |  |  |  |
| CN(CCc1ccccn1)c1ccc2c(c1)Cc1ccccc1-2 | 41.4 | 44.6 | 88.1 | > 100 | > 100 | 68.6 | 92.2 | > 100 |  |  | 46.8 |  |  |  |  |  |  |  |  |  |
| O=C(/C=C/c1ccc(O)c(O)c1)O[C@H]1CCCC[C@@H]1OC(=O)/C=C/c1ccc(O)c(O)c1 | 56.2 | 41.1 | 55 | 27.1 | 91.2 | 41.3 | 77 | 27.8 |  |  | 63.6 |  |  |  |  |  |  |  |  |  |
| O=C(NN1CCCCC1)c1cc2cc(CCl)ccc2oc1=O | 36 | 40.5 | 42.7 | 42.1 | 54.2 | 42.6 | 59.1 | 35.3 |  |  | 38 |  |  |  |  |  |  |  |  |  |
| COc1ccc2c3c([nH]c2c1)[C@H](C=C(C)C)N1C(=O)[C@@H]2CCCN2C(=O)[C@@H]1C3 | > 100 | > 100 | > 100 | > 100 | > 100 | 95.9 | > 100 | > 100 |  |  | > 100 |  |  |  |  |  |  |  |  |  |
| CS(=O)(=O)Nc1cccc(-c2ccc3ncnc(Nc4cncc(Cl)c4)c3c2)c1 |  | 17.8 | 4.06 | > 100 | > 100 | 4.99 | 4.82 |  |  |  | 7.39 | 2.34 |  | 2.7 | 0.533 | 3.2 | 13.7 | 1.34 | 2.08 |  |
| COc1ccc(-n2nnc3c(C#N)c(C)c(-c4ccccc4)n3c2=O)cc1 | 10.6 | > 100 | > 100 |  | 21.1 | > 22.4 | > 100 | > 100 |  |  | > 100 |  |  |  |  |  |  |  |  |  |
